The results in this text go back to ChEMBL document CHEMBL4828715, “Discovery, Structure-Activity Relationships, and In Vivo Evaluation of Novel Aryl Amides as Brain Penetrant Adaptor Protein 2-Associated Kinase 1 (AAK1) Inhibitors for the Treatment of Neuropathic Pain” (J Med Chem, 2021).

A short description of data set [1]: Drug concentration in Sprague-Dawley rat plasma at 30 mg/kg, sc measured after 190 mins. The class given is ADME, organism-based.
Data set [2] can be described thus: Unbound drug concentration in brain of Sprague-Dawley rat model of chronic constriction injury-induced neuropathic pain at 10 mg/kg, sc. Conditions: in vivo. The class given is ADME, organism-based.
Data set [3] deals with Rattus norvegicus. Nature of the data set: Antinociceptive activity in Sprague-Dawley rat model of chronic constriction injury-induced neuropathic pain assessed as reduction in thermal hyperalgesia 60 mg/kg, sc by Von Frey test relative to control. In kind it is functional. Details: scale not given: the % may be the effect or the level left.
In data set [4] the target is T1, Citron Rho-interacting kinase (Homo sapiens, UniProt O14578). Description: Inhibition of CRIK (unknown origin) by Kinomescan method.
The target of data set [5] is Alpha-2C adrenergic receptor (Homo sapiens, UniProt P18825). Nature of the data set: Inhibition of alpha 2C adrenergic receptor (unknown origin).
Data set [6] deals with Rattus norvegicus. Nature of the data set: Antinociceptive activity in Sprague-Dawley rat model of chronic constriction injury-induced neuropathic pain assessed as reduction in paw withdrawal latency at 60 mg/kg, sc by Von Frey test. The class given is functional, organism-based.
Data set [7] concerns Mus musculus. Description: Antinociceptive activity against formalin-induced nociceptive behavior in C57BL6 mouse assessed as reduction in phase 2 hind paw flinching at 30 mg/kg, sc administered 60 mins prior to formalin challenge by formalin test. In kind it is functional, organism-based.
In data set [8] the target is MAP kinase-interacting serine/threonine-protein kinase 1 (Homo sapiens, UniProt Q9BUB5). Description: Inhibition of wild-type human full length MKNK1 (M1 to L424 residues) expressed in mammalian expression system by Kinomescan method.
Data set [9] in a line: Metabolic stability in human liver microsomes assessed as parent compound remaining at 0.5 uM incubated for 10 mins in presence of NADPH by LC-MS/MS analysis. The class given is ADME, Microsome. Conditions: read-out: Stability. (In general: Liver microsomes are vesicles of endoplasmic reticulum, rich in cytochrome P450 enzymes.)
In data set [10] the target is Kappa-type opioid receptor (Homo sapiens, UniProt P41145). Description: Inhibition of kappa opioid receptor (unknown origin).
Data set [11] has as its system Mus musculus. Description: Antinociceptive activity against formalin-induced nociceptive behavior in C57BL6 mouse assessed as reduction in phase 2 hind paw flinching at 10 mg/kg, sc administered 60 mins prior to formalin challenge by formalin test. In kind it is functional, organism-based.
Data set [12] can be described thus: Metabolic stability in rat liver microsomes assessed as parent compound remaining at 0.5 uM incubated for 10 mins in presence of NADPH by LC-MS/MS analysis. The class given is ADME, Microsome. Conditions: read-out: Stability.
The target in data set [13] is Cyclin-G-associated kinase (Homo sapiens) (UniProt O14976). Description: Inhibition of wild-type human partial length GAK (G13 to Y338 residues) expressed in bacterial expression system assessed as residual binding level at 1 uM by Kinomescan method relative to control.
Data set [14] has as its system Rattus norvegicus. Description: Antinociceptive activity in Sprague-Dawley rat model of chronic constriction injury-induced neuropathic pain assessed as reduction in thermal hyperalgesia 30 mg/kg, sc by Von Frey test relative to control. In kind it is functional. The arrangement: scale not given: the % may be the effect or the level left.
The subject of data set [15] is Rattus norvegicus. Description: Reversal of chronic constriction injury-induced cold allodynia in Sprague-Dawley rat model of neuropathic pain at 60 mg/kg, sc measured up to 180 mins relative to control. In kind it is functional. Conditions: time min <=180.
Data set [16] in a line: Drug concentration in plasma of Sprague-Dawley rat model of chronic constriction injury-induced neuropathic pain at 10 mg/kg, sc. Conditions: in vivo. The class given is ADME, organism-based.
In data set [17] the target is cAMP-dependent protein kinase catalytic subunit PRKX (Homo sapiens, UniProt P51817). Description: Inhibition of wild-type human partial length PRKX (M1 to F358 residues) expressed in bacterial expression system by Kinomescan method.
In data set [18] the target is AP2-associated protein kinase 1 (Homo sapiens, UniProt Q2M2I8). Nature of the data set: Inhibition of recombinant GST-Xa-tagged human AAK1 (30 to 330 residues) using 5-FAM-labelled Alla-KEEQSQITSQVTGQIGWR-NH2 peptide as substrate incubated for 3 hrs in presence of ATP by electrophoretic analysis.
A short description of data set [19]: Aqueous solubility of the compound at pH 1. The class given is physicochemical.
Data set [20] is described as follows: Drug concentration in C57BL6 mouse brain at 10 ml/kg, sc measured after 2 hrs by LC-MS/MS analysis. In kind it is ADME, organism-based. Conditions: read-out: Ct.
For data set [21], the target named is T1, Citron Rho-interacting kinase. Nature of the data set: Inhibition of CRIK (unknown origin) assessed as residual binding level at 1 uM by Kinomescan method relative to control.

Molecules are shown by their SMILES. ≈ marks a conversion by molar mass, not a printed value. Calls of active or inactive are those of the source. The rule behind the calls is not given here. A value given as a limit tells only on which side of the number the result lay.

Broadly, the IC50 is the concentration needed to halve the response being measured. In general, solubility refers to the dissolved amount per volume that the medium holds.

T1 sequence (O14578 whole entry): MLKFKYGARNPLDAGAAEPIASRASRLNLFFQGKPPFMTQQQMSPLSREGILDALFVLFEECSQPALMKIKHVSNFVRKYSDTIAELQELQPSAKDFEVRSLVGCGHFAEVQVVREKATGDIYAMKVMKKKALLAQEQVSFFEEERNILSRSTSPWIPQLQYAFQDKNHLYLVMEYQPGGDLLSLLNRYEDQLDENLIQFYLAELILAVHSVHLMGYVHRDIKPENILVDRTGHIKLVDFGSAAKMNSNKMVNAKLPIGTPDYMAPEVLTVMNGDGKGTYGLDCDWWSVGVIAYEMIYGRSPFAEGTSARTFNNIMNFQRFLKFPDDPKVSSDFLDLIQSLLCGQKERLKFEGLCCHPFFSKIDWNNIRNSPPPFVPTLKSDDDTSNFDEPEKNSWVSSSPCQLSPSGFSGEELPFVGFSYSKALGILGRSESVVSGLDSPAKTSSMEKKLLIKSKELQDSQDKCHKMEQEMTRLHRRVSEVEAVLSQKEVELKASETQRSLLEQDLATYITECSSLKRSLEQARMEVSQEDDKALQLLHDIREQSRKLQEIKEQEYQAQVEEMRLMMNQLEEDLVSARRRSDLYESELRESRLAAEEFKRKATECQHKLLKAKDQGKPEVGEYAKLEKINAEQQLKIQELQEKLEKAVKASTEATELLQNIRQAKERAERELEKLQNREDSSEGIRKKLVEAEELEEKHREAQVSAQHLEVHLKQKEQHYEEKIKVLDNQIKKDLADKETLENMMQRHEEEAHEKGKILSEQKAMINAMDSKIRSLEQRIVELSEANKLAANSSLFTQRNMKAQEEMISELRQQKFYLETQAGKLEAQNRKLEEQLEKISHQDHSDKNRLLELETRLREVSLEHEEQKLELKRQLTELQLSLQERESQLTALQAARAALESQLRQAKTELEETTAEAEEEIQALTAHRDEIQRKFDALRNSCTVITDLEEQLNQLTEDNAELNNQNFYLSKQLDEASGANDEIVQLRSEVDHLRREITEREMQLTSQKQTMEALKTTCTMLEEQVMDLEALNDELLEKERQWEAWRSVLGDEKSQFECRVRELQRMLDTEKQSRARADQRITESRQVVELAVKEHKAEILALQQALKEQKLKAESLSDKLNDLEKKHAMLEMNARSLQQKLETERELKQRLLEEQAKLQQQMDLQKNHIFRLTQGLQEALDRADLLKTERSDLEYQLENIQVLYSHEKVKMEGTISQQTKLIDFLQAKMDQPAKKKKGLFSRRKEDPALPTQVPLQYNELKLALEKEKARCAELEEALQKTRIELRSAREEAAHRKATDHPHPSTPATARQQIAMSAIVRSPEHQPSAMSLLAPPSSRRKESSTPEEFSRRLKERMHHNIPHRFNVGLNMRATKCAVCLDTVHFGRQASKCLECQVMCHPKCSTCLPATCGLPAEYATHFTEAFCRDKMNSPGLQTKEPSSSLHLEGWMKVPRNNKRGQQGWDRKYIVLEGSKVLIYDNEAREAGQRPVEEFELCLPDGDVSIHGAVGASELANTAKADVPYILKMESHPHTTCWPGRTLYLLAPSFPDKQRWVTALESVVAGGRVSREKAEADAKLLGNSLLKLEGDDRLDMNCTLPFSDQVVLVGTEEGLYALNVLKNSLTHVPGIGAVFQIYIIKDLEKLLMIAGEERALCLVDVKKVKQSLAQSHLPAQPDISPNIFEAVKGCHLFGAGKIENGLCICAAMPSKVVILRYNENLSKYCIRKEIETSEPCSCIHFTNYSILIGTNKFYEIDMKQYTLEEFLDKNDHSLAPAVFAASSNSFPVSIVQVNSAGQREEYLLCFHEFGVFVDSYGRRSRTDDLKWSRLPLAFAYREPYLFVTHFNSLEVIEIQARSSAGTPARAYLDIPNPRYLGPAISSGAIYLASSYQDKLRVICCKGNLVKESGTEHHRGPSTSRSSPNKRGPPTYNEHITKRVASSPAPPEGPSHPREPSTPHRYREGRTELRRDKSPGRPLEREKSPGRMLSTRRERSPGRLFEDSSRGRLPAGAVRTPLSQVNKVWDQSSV
Chain of Alpha-2C adrenergic receptor (P18825 whole entry): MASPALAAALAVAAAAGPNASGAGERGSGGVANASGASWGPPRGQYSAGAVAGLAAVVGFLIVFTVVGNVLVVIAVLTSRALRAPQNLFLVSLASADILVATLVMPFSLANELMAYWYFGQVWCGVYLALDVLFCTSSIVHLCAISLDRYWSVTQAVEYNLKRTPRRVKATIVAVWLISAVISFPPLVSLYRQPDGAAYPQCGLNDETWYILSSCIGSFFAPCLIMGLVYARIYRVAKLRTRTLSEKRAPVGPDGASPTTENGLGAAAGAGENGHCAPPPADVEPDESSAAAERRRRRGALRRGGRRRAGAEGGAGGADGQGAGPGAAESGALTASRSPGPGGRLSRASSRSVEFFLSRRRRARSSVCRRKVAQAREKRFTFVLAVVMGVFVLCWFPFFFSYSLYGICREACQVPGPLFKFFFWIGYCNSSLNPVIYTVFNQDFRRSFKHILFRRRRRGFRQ
Chain of AP2-associated protein kinase 1 (Q2M2I8 whole entry, the tested form may be a part): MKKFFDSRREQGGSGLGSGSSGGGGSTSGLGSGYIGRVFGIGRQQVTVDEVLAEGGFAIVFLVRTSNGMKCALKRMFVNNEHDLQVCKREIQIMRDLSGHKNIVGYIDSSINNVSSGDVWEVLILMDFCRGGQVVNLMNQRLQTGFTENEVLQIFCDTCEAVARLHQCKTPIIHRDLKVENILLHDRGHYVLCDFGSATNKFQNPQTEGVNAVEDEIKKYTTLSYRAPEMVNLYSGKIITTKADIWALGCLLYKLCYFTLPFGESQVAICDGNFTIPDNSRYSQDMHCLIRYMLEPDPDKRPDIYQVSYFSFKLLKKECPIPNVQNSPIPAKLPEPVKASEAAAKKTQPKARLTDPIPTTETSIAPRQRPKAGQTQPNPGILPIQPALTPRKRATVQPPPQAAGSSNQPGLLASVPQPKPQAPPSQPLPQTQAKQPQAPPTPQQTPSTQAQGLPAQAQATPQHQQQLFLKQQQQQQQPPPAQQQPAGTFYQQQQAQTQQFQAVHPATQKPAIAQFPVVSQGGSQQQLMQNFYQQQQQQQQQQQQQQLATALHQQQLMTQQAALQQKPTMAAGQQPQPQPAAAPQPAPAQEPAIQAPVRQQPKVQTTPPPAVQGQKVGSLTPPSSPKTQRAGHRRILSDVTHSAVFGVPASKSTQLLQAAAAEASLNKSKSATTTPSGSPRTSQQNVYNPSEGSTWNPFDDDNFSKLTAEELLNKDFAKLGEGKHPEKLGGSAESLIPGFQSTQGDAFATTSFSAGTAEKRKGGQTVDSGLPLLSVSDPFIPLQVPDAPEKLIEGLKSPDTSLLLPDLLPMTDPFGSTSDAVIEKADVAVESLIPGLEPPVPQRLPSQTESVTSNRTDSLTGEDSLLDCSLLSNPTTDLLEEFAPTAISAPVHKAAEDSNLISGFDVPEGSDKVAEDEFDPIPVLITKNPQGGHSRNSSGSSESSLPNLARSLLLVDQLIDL
Chain of Kappa-type opioid receptor (P41145 whole entry): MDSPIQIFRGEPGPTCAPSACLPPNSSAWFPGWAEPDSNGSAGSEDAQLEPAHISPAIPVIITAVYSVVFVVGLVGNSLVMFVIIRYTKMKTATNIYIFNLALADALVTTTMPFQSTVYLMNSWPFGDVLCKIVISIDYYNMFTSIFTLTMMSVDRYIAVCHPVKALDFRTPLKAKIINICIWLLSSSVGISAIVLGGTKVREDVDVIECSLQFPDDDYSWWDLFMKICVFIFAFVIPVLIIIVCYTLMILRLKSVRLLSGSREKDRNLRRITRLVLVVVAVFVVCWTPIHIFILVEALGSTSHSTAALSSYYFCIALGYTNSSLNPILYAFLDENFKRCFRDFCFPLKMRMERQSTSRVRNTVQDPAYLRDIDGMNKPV
Chain of MAP kinase-interacting serine/threonine-protein kinase 1 (Q9BUB5 whole entry, the tested form may be a part): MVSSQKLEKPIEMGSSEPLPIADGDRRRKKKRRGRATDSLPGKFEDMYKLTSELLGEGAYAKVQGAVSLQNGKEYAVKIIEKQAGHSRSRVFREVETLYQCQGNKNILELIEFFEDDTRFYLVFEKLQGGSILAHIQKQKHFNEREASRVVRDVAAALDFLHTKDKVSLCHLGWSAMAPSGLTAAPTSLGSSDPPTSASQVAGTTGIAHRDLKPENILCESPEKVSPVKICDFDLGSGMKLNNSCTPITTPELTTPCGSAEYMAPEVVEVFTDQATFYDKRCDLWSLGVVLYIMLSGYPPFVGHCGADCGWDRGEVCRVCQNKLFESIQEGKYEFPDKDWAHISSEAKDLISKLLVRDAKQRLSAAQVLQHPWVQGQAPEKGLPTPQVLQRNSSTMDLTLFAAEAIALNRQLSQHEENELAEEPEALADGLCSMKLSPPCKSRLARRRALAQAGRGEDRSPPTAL
Chain of cAMP-dependent protein kinase catalytic subunit PRKX (P51817 whole entry, the tested form may be a part): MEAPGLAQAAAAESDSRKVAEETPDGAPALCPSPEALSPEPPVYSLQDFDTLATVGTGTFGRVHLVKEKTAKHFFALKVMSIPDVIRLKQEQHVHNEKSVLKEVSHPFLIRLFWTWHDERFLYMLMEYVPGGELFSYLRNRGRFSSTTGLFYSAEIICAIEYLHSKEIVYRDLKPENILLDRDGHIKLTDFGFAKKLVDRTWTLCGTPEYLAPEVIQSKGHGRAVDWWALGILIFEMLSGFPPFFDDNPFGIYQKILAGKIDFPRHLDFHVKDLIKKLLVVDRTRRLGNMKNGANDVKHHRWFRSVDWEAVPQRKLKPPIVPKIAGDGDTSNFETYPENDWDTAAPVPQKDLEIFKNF

In turn, `CC(C)C[C@@H](N)C(=O)Nc1ccc(-c2cnco2)c(OC(F)F)c1` displayed a concentration at 3.167 h in data set [1] of 3.4 µM. Also, the “Drug uptake(free)” value in data set [2] was 0.2 µM. Besides, the Activity in [3] was determined as 113%; in data set [13], 21%; in data set [14], 90%; in [15], 49%; in data set [21], 0.7%. Also, the IC50 in data set [4] is 120 nM; in data set [5] it was over 30000 nM; in data set [8], 507 nM; in [10] it was over 30000 nM; in data set [17], 326 nM; in data set [18], 12 nM. For the same molecule, the result in data set [6], in data set [7] and in data set [11] was Active. The remaining at 10 min, 0.5 µM in [9] was 84%; in data set [12], 68%. The molecule also yielded a concentration in [16] of 11 µM. For the same molecule, the concentration in solution in [19] (solubility) was 5850 µg/mL (≈ 17.2 mM). In addition, in data set [20], the concentration at 2 h is 18.5 µM.
